Laboratory results from ChEMBL document CHEMBL4414592, “Aryl-fluorosulfate-based Lysine Covalent Pan-Inhibitors of Apoptosis Protein (IAP) Antagonists with Cellular Efficacy” (J Med Chem, 2019).
pIC50: −log10 of the molar value. Calls of active or inactive are those of the source. The rule behind the calls is not given here.

How the values were obtained:
[1] = test system: A549; experiment: Induction of apoptosis in human A549 cells assessed as increase in caspase-3/7 activity at […] incubated for 36 hrs by IncuCyteS3 caspase-3/7 fluorescence-based apoptosis assay; assay type: functional, cell-based
[2] = test system: SK-MEL-28; experiment: Induction of apoptosis in human SK-MEL-28 cells assessed as increase in caspase-3/7 activity at […] incubated for 36 hrs in presence of 1 ng/mL TNFlpha by IncuCyteS3 caspase-3/7 fluorescence-based apoptosis assay; assay type: functional, cell-based
[3] = test system: SK-MEL-28; experiment: Induction of apoptosis in human SK-MEL-28 cells assessed as increase in caspase-3/7 activity at […] incubated for 36 hrs by IncuCyteS3 caspase-3/7 fluorescence-based apoptosis assay; assay type: functional, cell-based
[4] = test system: SK-MEL-28; experiment: Cytotoxicity in human SK-MEL-28 cells assessed as reduction in cell viability in presence of 1 ng/mL TNFlpha measured every 3 hrs for 4 days by IncuCyteS3 live-cell analysis system based assay; assay type: functional
[5] = test system: A549; experiment: Induction of apoptosis in human A549 cells assessed as increase in caspase-3/7 activity at […] incubated for 36 hrs in presence of 1 ng/mL TNFlpha by IncuCyteS3 caspase-3/7 fluorescence-based apoptosis assay; assay type: functional, cell-based
[6] = Solubility in pH 7.5 aqueous buffer at 25 degC by 1H 1D NMR spectroscopy; assay type: physicochemical
[7] = Stability in mouse plasma assessed as half life at 200 uM at 37 degC incubated up to 120 mins by mass spectrometry; assay type: ADME, cell-free; conditions: 2 h
[8] = test system: A549; experiment: Cytotoxicity in human A549 cells assessed as reduction in cell viability in presence of 1 ng/mL TNFlpha measured every 3 hrs for 4 days by IncuCyteS3 live-cell analysis system based assay; assay type: functional
[9] = molecular target: T1, Baculoviral IAP repeat-containing protein 3 (Homo sapiens, UniProt Q13489); experiment: Inhibition of N-terminal 6x-His-tagged recombinant human cIAP2-BIR3 (244 to 349 residues) expressed in Escherichia coli incubated for 2 hrs after 6 hrs pre-incubation with enzyme by biotinylated AVPI peptide based DELFIA
T1 sequence (Q13489 whole entry, the tested form may be a part): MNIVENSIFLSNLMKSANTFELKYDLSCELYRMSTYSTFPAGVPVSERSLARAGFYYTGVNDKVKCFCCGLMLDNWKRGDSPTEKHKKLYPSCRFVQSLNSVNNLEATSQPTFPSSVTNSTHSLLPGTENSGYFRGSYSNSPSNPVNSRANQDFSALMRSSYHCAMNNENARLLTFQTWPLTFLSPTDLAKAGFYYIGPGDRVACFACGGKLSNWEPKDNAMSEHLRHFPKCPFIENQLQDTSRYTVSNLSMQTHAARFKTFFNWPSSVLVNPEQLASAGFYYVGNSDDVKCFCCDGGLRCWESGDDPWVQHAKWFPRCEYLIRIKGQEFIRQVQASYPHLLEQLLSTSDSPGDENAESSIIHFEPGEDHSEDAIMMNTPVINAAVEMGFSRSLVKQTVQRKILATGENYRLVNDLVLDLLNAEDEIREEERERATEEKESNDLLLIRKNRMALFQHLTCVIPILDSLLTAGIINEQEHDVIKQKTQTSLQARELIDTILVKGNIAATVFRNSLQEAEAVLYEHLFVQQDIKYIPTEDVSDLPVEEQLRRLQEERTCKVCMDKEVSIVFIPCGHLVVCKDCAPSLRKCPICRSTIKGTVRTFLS

[10] = molecular target: T2, E3 ubiquitin-protein ligase XIAP (Homo sapiens, UniProt P98170)
T2 sequence (P98170 whole entry): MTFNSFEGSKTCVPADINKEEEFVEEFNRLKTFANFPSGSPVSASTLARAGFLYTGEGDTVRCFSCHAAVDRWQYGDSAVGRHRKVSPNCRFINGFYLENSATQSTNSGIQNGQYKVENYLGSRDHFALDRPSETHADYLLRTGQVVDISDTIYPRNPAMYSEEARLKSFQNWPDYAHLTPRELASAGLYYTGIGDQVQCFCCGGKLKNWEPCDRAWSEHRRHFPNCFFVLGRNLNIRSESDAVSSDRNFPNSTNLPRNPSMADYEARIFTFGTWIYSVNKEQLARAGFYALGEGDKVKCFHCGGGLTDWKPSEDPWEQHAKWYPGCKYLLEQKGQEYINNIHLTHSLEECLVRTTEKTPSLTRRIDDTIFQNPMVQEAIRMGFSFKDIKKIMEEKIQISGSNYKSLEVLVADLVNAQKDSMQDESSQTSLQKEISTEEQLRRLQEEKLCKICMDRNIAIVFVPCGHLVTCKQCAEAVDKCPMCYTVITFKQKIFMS

[11] = molecular target: T2, E3 ubiquitin-protein ligase XIAP; remark: listed apart in the source
[12] = molecular target: T2, E3 ubiquitin-protein ligase XIAP; remark: listed apart in the source
[13] = molecular target: T1, Baculoviral IAP repeat-containing protein 3; experiment: Inhibition of N-terminal 6x-His-tagged recombinant human cIAP2-BIR3 (244 to 349 residues) expressed in Escherichia coli incubated for 2 hrs without 6 hrs pre-incubation with enzyme by biotinylated AVPI peptide based DELFIA
[14] = molecular target: T2, E3 ubiquitin-protein ligase XIAP; remark: listed apart in the source
[15] = molecular target: Baculoviral IAP repeat-containing protein 2 (Homo sapiens) (UniProt Q13490); experiment: Binding affinity to N-terminal 6x-His-tagged recombinant human cIAP1-BIR3 (258 to 363 residues) expressed in Escherichia coli assessed as increase in […] domain mass at protein-compound ratio of 1:10 incubated for 6 hrs at 25 degC by LC-MS analysis relative to control
Sequence of Baculoviral IAP repeat-containing protein 2 (Homo sapiens) (Q13490 whole entry, the tested form may be a part): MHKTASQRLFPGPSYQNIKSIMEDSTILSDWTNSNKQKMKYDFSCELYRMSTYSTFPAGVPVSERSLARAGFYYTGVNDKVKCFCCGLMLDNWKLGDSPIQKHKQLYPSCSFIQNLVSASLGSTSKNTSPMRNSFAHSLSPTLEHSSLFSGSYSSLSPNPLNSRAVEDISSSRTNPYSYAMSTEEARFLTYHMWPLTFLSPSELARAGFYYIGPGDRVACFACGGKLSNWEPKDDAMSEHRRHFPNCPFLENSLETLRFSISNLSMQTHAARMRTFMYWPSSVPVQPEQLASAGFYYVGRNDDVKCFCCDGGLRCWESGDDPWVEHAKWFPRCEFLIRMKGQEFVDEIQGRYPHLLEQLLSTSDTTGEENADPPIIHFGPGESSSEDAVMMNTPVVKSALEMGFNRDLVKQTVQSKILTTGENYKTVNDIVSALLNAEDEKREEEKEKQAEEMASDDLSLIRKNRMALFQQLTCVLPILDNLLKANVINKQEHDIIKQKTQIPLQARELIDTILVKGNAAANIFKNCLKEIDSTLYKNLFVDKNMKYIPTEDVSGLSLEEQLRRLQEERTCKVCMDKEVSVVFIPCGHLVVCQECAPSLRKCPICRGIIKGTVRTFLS

[16] = Stability in aqueous buffer at 100 uM to 2 mM by 1H 1D NMR spectroscopy; assay type: physicochemical

Row | SMILES | Activity [1] | Activity [2] | Activity [3] | Activity [4] | Activity [5] | solubility [6] | Stability [7] | Activity [8] | pIC50 [9] | pIC50 [10] | ΔTm [11] | pIC50 [12] | pIC50 [13] | ΔTm [14] | Activity [15] | Stability [16]
1 | CN[C@@H](C)C(=O)NC(Cc1cc(C)c(C(F)(F)F)cc1F)C(=O)N1CCC[C@H]1C(=O)N[C@@H]1CCc2c(OS(=O)(=O)F)cccc21 (mixture of isomers) | inactive | Dose-dependent effect | inactive | Dose-dependent effect | Dose-dependent effect | <= 1 mM | Stable | Dose-dependent effect |  |  |  |  |  |  |  | 
2 | CN[C@@H](C)C(=O)N[C@H]1CN(C(=O)CC(C)C)CC[C@H]2CC[C@@H](C(=O)NC(c3ccccc3)c3ccccc3)N2C1=O [XEVINAPANT] | inactive | Dose-dependent effect | inactive | Dose-dependent effect | Dose-dependent effect |  | Stable | Dose-dependent effect | 6.88 | 7.38 | 19 °C | 7.32 | 7.36 | 17 °C |  | 
3 | CN[C@@H](C)C(=O)N[C@@H](Cc1ccc(OS(=O)(=O)F)cc1)C(=O)N1CCC[C@H]1C(=O)N[C@@H]1CCc2c(F)cccc21 | inactive | Dose-dependent effect | inactive | Dose-dependent effect | Dose-dependent effect |  |  | Dose-dependent effect |  |  |  |  |  |  | inactive | 
4 | CN[C@@H](C)C(=O)N[C@H](C(=O)N1CCC[C@H]1C(=O)N[C@@H]1CCc2c(OS(=O)(=O)F)cccc21)C1CCCCC1 | inactive | Dose-dependent effect | inactive | Dose-dependent effect | Dose-dependent effect | <= 2 mM |  | Dose-dependent effect |  |  |  |  |  |  |  | Stable
5 | CN[C@@H](C)C(=O)N[C@H](C(=O)N1CCC[C@H]1c1nc(C(=O)c2ccc(F)cc2)cs1)C1CCCCC1 [LCL-161] | inactive | Dose-dependent effect | inactive | Dose-dependent effect | Dose-dependent effect |  | Stable | Dose-dependent effect |  |  |  |  |  |  |  | 
